Source: PMC9928118, “Funneling modulatory peptide design with generative models: Discovery and characterization of disruptors of calcineurin protein-protein interactions” (PLOS Computational Biology, 2023)

Experiments:
[1] = tested on: GST-tagged Cn; assay: PEPperPRINT peptide microarray binding assay with GST-tagged Cn; conditions: max over the duplicate spots (Location on chip)
[2] = tested on: GST-tagged Cn; assay: as above; conditions: GST-tagged Cn, mean over the duplicate spots (Location on chip)
Summary of the method: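 Qualitative binding: peptides printed on a PEPperPRINT microarray were incubated overnight at 4 °C with 1 mg/ml GST-tagged Cn, then detected with Alexa-Fluor 647 anti-GST antibody. Log fluorescence was baseline-corrected, averaged over duplicate spots, Z-normalized and averaged across five repeats.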

[3] = molecular target: T1, catalytic domain of Calcineurin (Cn A), residues 2-347 with Y341S, L343A, M347D (UniProt Q08209 2-347, Y341S | L343A | M347D); assay: fluorescence polarisation; competition: variable concentrations of non-labeled peptide added to 100 nM FITC-labeled PVIVIT peptide and 4 uM Cn A, 96-well plate, triplicate; fitted to a single site inhibition model; conditions: both partners purified
T1 construct: Calcineurin catalytic domain (calcineurin A), residues 2-347, with substitutions Y341S, L343A, M347D; Expressed as a cleavable GST fusion; source: E. coli BL21, purified (Glutathione Sepharose 4 Fast Flow, size exclusion on Superdex 75)
T1 sequence (Q08209 2-347 Y341S/L343A/M347D): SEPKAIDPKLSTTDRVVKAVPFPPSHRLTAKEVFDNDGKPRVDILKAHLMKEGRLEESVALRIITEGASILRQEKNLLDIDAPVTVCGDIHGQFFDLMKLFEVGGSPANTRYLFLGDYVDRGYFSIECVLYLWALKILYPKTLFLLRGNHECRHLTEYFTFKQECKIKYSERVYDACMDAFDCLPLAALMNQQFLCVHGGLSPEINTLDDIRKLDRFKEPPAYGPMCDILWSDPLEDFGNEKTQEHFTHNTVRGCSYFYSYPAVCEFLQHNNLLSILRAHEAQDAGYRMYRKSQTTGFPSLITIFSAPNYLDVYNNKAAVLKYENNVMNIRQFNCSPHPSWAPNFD

Molecule | Chip Fluorescence (max) [1] | Chip Fluorescence (mean) [2] | IC50 [3] [µM]
KKMSPPCITITPAPGA [SeqRBMlowT_7625] | 2.125 | -0.7518 | –
KNARGPLIIIHPMEED [SeqRBM_1913] | 2.283 | 1.192 | –
KSKRIPKLSVVSPVHH [SeqRBM_6422] | 2.115 | 0.728 | –
LLDNVPAVHVHDMGGH [SeqRBM_9035] | 1.904 | 0.6608 | –
LMDLCPVVRLQIISAL [SeqRBM_7616] | 2.223 | 0.2546 | –
LNDEIPEVRLNIISAL [SeqRBMlowT_4170] | 2.3229 | -0.4845 | –
LRDEVPEVRLNIISDL [SeqRBM_180] | 2.2011 | -0.2367 | –
LSLYVNALGMESFTIS [SeqRBM_9141] | 2.172 | 0.3343 | –
LSSSNPEITVTPAELD [SeqRBMlowT_6234] | 1.968 | -0.4808 | –
NNLAINDVTAGDRGCY [SeqRBM_1373] | 2.1787 | 1.818 | –
PGQMQPSINVMAEKNP [SeqRBM_977] | 1.973 | -0.5544 | –
PMKTRGLYGWPPCAKW [Seqrandom_5226] | 2.284 | 0.996 | –
PNGSNPETVIKPDWTE [SeqRBM_275] | 1.983 | 0.6822 | –
PNKICGQRSFDGEHQN [Seqshuffled_9648] | 2.3848 | -0.254 | –
PSHSIPKHSWESAVEH [SeqRBM_3394] | 2.053 | -0.5716 | –
PSIYQEVLGIGNFSLS [SeqRBMlowT_4899] | 2.16 | 0.7614 | –
PSLYENALGMESFTIS [SeqRBMlowT_2807] | 2.474 | -0.3855 | –
PSLYINALGIESFTLS [SeqRBMlowT_6967] | 2.037 | 0.7051 | –
PTNGIPEMQRNSAKSA [Seqshuffled_9538] | 2.2337 | 0.992 | –
QWSLGVGIVITVTETM [SeqRBM_1755] | 2.2853 | 0.7956 | –
RAYDNPVFSFTFDSKG [SeqRBM_7566] | 2.445 | 0.4256 | –
RAYINPFMQFTFDSNK [SeqRBMlowT_4738] | 2.119 | 0.6521 | –
RAYKNPFMQFDLDSSL [SeqRBM_8076] | 2.512 | 1.346 | –
RAYMNPSVCFTDGGAR [SeqRBM_6787] | 1.921 | 0.3113 | –
RFYINPFVQFSDGGNN [SeqRBM_1053] | 2.558 | -0.5027 | –

Molecule | Chip Fluorescence (max) [1] | Chip Fluorescence (mean) [2] | IC50 [3] [µM]
RMYINPFVQFIDGGNR [SeqSFB3_Mycena_chlorophos] | 2.0812 | -0.09268 | –
RNPESPVLELEGHSAS [SeqRBMlowT_6180] | 1.97 | 0.5231 | –
RNPESPVLELEGHSSP [SeqRBMlowT_6390] | 2.243 | 1.113 | –
RNPGSPVLVLEGHSAA [SeqYPL247C_Zygosaccharomyces_parabailii] | 2.128 | -0.2767 | –
RNPGTFLLTLRGHKKQ [SeqRBMlowT_5813] | 2.447 | 1.08 | –
RQPGQALLELRGHSAS [SeqRBMlowT_7735] | 2.013 | 0.19 | –
RQPGSPVLELSGHSAN [SeqRBMlowT_5862] | 2.053 | 0.5615 | –
RSKFIPKLSLQSPVHH [SeqRBMlowT_1791] | 2.2877 | 0.1659 | –
RTYINPFMLFEDMGSR [SeqRBM_7588] | 2.523 | 0.1039 | –
RTYINPFMQFNRGGRK [SeqRBM_3856] | 2.196 | 0.8441 | –
RTYINPFMQFTYDGRR [SeqRBMlowT_4071] | 1.896 | 1.243 | –
SDVAQQCLPSQHWSCW [Seqrandom_9997] | 2.401 | 0.2486 | –
SFWTNPQFIITLQEED [SeqRBMlowT_7307] | 2.363 | 0.8738 | –
SSLYENALGIESFTLS [SeqRBMlowT_2888] | 2.496 | 0.9732 | –
SSMAQPAINIDFAPTN [SeqRBMlowT_2450] | 2.328 | -0.1624 | –
SSSAAPEIVVSKPEHN [SeqRBMlowT_9785] | 2.217 | -0.01901 | –
STASLPSFNFSFLTSS [SeqNUP153_Antrostomus_carolinensis] | 2.477 | -0.1064 | –
STPLPQGAPISPNTLA [Seqshuffled_9522] | 2.383 | -0.4537 | –
STSSLPTFSFSSPLSS [SeqRBMlowT_2357] | 2.106 | 0.4296 | –
TFFINPQFKASLTEMD [SeqRBM_564] | 2.053 | 0.5882 | –
TFMMNPQYRLYKSVSP [SeqRBM_6553] | 2.027 | 0.3935 | –
TFNNNPQATVRRTDID [SeqRBM_1961] | 1.877 | 0.6511 | –
TFWANPQITITLAELD [SeqRBMlowT_7358] | 2.261 | 0.7622 | –
TFWMNPQYRITLEEPD [SeqRBMlowT_2265] | 2.207 | 0.1767 | –
TFWSNPQFKITLEEPD [SeqRBMlowT_5528] | 2.1472 | 0.877 | –

Molecule | Chip Fluorescence (max) [1] | Chip Fluorescence (mean) [2] | IC50 [3] [µM]
TFWSNPQFRLKLEDPD [SeqRBMlowT_6883] | 2.274 | 1.226 | –
TFWSNPQYRITLEDPD [SeqRBMlowT_78] | 2.0958 | 0.4904 | –
TFWTNPQFKFRLEDPD [SeqRBMlowT_7471] | 2.466 | 0.6593 | –
TFWTNPQFKVSLEEPD [SeqRBMlowT_97] | 2.43 | 0.2931 | –
TFWTNPQFRIKLEDED [SeqRBMlowT_645] | 2.265 | 1.091 | –
TFWTNPQFRIKLEEPD [SeqRBMlowT_8] | 2.218 | -0.1106 | –
TFWTNPQFRITLEEPD [SeqRBMlowT_11] | 2.387 | 0.7438 | –
TFWTNPQFRVHLEDED [SeqRBMlowT_4265] | 1.93 | 1.067 | –
TFWTNPQFVVSLPEED [SeqRBMlowT_8537] | 2.16 | -0.2871 | –
TFWTNPQITVTLAEDD [SeqRBMlowT_3250] | 2.572 | 1.296 | –
TFWTNPQYKITLEDED [SeqRBMlowT_7336] | 2.0782 | 1.363 | –
TFWTNPQYKITLEDPD [SeqRBMlowT_219] | 2.355 | 1.018 | –
TFWTNPQYRIKLEEVD [SeqRBMlowT_627] | 1.99 | -1.639 | –
TFWTNPQYRITLEDPD [SeqRBMlowT_604] | 2.534 | -0.2036 | –
TFWTNPQYRLKLEEPD [SeqRBMlowT_264] | 2.584 | 0.9748 | –
TFWTNPQYVITLPEED [SeqRBMlowT_4660] | 1.913 | 0.3942 | –
VEALSSRYGMATNLTG [Seqshuffled_4257] | 2.043 | 0.2313 | –
WPWCRHPKKRNWLNWH [Seqrandom_9939] | 2.4643 | 1.3152 | –
YCQWSNRATQIGHKPT [Seqrandom_9979] | 2.027 | -0.2818 | –
YRQAVRFEMPLTACAP [Seqrandom_9969] | 2.355 | 0.771 | –
YTQIFPKCAMTIIKRK [Seqrandom_9966] | 2.341 | 0.5369 | –
Ac-ASVSNPEITVTSAETE-NH2 (cRBM-designed; source: synthetic peptide (peptide2 Inc)) [rbmRIPOR2] | – | – | 79
Ac-HVSSSPRITITPTQHR-NH2 (cRBM-designed (low temperature sampling); source: synthetic peptide (peptide2 Inc)) [rbmRIPOR2_2] | – | – | 200
Ac-ADEAIPEIVISKPEEP-NH2 (cRBM-designed (low temperature sampling); source: synthetic peptide (peptide2 Inc)) [rbmTRESK] | – | – | 14
Ac-TYWTNPQFRVTLEDPD-NH2 (cRBM-designed (low temperature sampling); (Schistosoma mansoni CAPN11), 2 mutations; source: synthetic peptide (peptide2 Inc)) [rbmCAPN11] | – | – | 257
